IC50 data for 34 compounds are collected here from US8338565B2, “Macrocyclic compounds for inhibition of tumor necrosis factor alpha” (Ensemble Therapeutics Corporation, priority 2008, dated 2012).

pIC50: −log10 of the molar value. Numbered stars: 1 amine (or outer) side, 2 acyl side, 3 side chain; on linkers, the order of the positions; unused ones are H or OH. Bridge positions count the residues as written; N and C are the ends. Square brackets hold non-standard residues; d marks the D form. Peptide text beside a SMILES is read from it. * marks the point of attachment. Tartaroyl(2R,3R-(OAc)2) = CC(=O)O[C@@H](C(=O)[*:1])[C@@H](OC(C)=O)C(=O)[*:2]; Gly(N-(4-CH2NH-benzyl)) = O=C(CN(Cc1ccc(CN[*:3])cc1)[*:1])[*:2]; Phe(4-CF3) = N[C@@H](Cc1ccc(C(F)(F)F)cc1)C(=O)O; Phe(4-COOH) = N[C@@H](Cc1ccc(C(=O)O)cc1)C(=O)O; dPhe(3-CN) = N#Cc1cccc(C[C@@H](N)C(=O)O)c1; Bip = N[C@@H](Cc1ccc(-c2ccccc2)cc1)C(=O)O; dBip = N[C@H](Cc1ccc(-c2ccccc2)cc1)C(=O)O; dPhe(4-NH2) = Nc1ccc(C[C@@H](N)C(=O)O)cc1; dPhe(3-Cl) = N[C@H](Cc1cccc(Cl)c1)C(=O)O; dPhe(4-Br) = N[C@H](Cc1ccc(Br)cc1)C(=O)O; Phe(4-NH2) = Nc1ccc(C[C@H](N)C(=O)O)cc1; d(hPhe) = N[C@H](CCc1ccccc1)C(=O)O; hPhe = N[C@@H](CCc1ccccc1)C(=O)O; 2Thi = N[C@@H](Cc1cccs1)C(=O)O; d2Thi = N[C@H](Cc1cccs1)C(=O)O; NH(CH2)2O(CH2)2NH2 = NCCOCCN*; Suc = O=C(CCC(=O)[*:2])[*:1]; Nicotinoyl = O=C(c1cccnc1)*; Nphe = O=C(O)CNCc1ccccc1; Boc = CC(C)(C)OC(=O)*; NHCH2CH2OH = OCCN*; GABA = NCCCC(=O)O; βAla = NCCC(=O)O Where only a bound is given, the exact number is not on record here.

The target in one assay is T1, TNFα / TNFα receptor (TNFα R1/Fc) (Homo sapiens, UniProt P01375).
T1 construct: purchased R&D Systems
T1 sequence (P01375 77-233 limits assumed, species assumed): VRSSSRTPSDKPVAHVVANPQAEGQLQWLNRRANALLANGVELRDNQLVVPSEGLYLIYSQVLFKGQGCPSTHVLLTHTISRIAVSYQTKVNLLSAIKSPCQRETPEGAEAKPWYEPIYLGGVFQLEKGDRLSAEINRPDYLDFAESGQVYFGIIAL
As to the kind of experiment: Inhibition of binding of TNFα to the TNFα receptor (plate ELISA competition). Conditions: Activity (IC50, inhibition of TNFα binding to TNFα R1/Fc), Table 2. The method in brief: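 Plates were coated with TNFα at 15 nM. Test compound and 8.33 nM receptor-Fc (PBST, 2% DMSO) were first mixed in solution for 30 min at room temperature, then transferred to the plates for another 30 min. Competition was read by absorbance at 450 nm after HRP anti-human IgG Fc detection with TMB.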
As for `C[C@H](C(=O)O)N(C)C(=O)[C@@H]1Cc2ccc(cc2)OCC(=O)N[C@@H](Cc2cccs2)C(=O)N[C@H](Cc2ccc(-c3ccccc3)cc2)C(=O)N[C@@H](CCc2ccccc2)C(=O)N1` [Compound 576], the pIC50 was > 5.00. Same read-out and setting: to `O=C1COc2ccc(cc2)C[C@H](C(=O)N[C@@H](Cc2ccccc2)C(=O)O)NC(=O)[C@@H](CCc2ccccc2)NC(=O)[C@H](Cc2ccc(-c3ccccc3)cc2)NC(=O)[C@@H](Cc2cccs2)N1` [Compound 561] belongs > 5.00.

Still in this assay, the particulars now being: Table 2; read-out: Activity (IC50, inhibition of TNFα binding to TNFα R1/Fc).
Consider `CC(=O)O[C@H]1C(=O)Nc2ccc(cc2)C[C@@H](C(=O)N[C@@H](Cc2ccccc2)C(=O)O)NC(=O)[C@H](CCc2ccccc2)NC(=O)[C@@H](Cc2ccc(Br)cc2)NC(=O)[C@H](Cc2cccs2)NC(=O)[C@@H]1OC(C)=O` [Compound 416] ([2Thi][dPhe(4-Br)][hPhe][Phe(4-NH2)]F-OH; linker N-4 via Tartaroyl(2R,3R-(OAc)2)), for which the pIC50 is < 4.00. Same read-out and setting: to `O=C(O)CN(Cc1ccccc1)C(=O)[C@@H]1Cc2ccc(cc2)NC(=O)CCC(=O)N[C@H](CCc2ccccc2)C(=O)N[C@@H](Cc2ccc(-c3ccccc3)cc2)C(=O)N[C@H](Cc2ccccc2)C(=O)N1` [Compound 504] ([d(hPhe)][Bip][dF][Phe(4-NH2)][Nphe]-OH; linker N-4 via Suc) belongs > 5.00. The same measure, in the same setting: to `O=C1COc2ccc(cc2)C[C@@H](C(=O)NCCCS(=O)(=O)O)NC(=O)[C@H](CCc2ccccc2)NC(=O)[C@@H](Cc2ccc(-c3ccccc3)cc2)NC(=O)[C@H](Cc2cccs2)N1` [Compound 603] belongs < 4.00.

Consider `O=C(O)[C@@H]1Cc2ccc(cc2)NC(=O)[C@H](O)[C@@H](O)C(=O)N[C@@H](Cc2cccs2)C(=O)N[C@H](Cc2ccc(-c3ccccc3)cc2)C(=O)N[C@H](Cc2ccccc2)C(=O)N1` [Compound 272], for which the pIC50 is < 4.00. In the case of `O=C(O)CN1Cc2ccc(cc2)CNC(=O)CCC(=O)N[C@H](Cc2cccs2)C(=O)N[C@@H](Cc2ccc(-c3ccccc3)cc2)C(=O)N[C@H](Cc2ccccc2)C1=O` [Compound 186] ([d2Thi][Bip][dF][Gly(N-(4-CH2NH-benzyl))]-OH; linker N-4 via Suc), the pIC50 was 4.00 to 4.52.

`O=C1CCC(=O)N[C@H](Cc2cccs2)C(=O)N[C@@H](CCCCNC(=O)c2cccnc2)C(=O)N[C@H](Cc2ccccc2)C(=O)N[C@H](C(=O)O)Cc2ccc(cc2)N1` [Compound 96] ([d2Thi]K(Nicotinoyl)[dF][Phe(4-NH2)]-OH; linker N-4 via Suc): the pIC50 is < 4.00.

On to `CC(=O)O[C@H]1C(=O)Nc2ccc(cc2)C[C@@H](C(=O)N[C@@H](Cc2ccccc2)C(=O)O)NC(=O)[C@H](Cc2ccccc2)NC(=O)[C@@H](Cc2ccc(-c3ccccc3)cc2)NC(=O)[C@H](Cc2cccs2)NC(=O)[C@@H]1OC(C)=O` [Compound 414] ([2Thi][dBip]F[Phe(4-NH2)]F-OH; linker N-4 via Tartaroyl(2R,3R-(OAc)2)), for which the pIC50 is < 4.00.

Turning to `CC(C)C[C@@H]1NC(=O)[C@H](Cc2ccc(-c3ccccc3)cc2)NC(=O)[C@@H](Cc2cccs2)NC(=O)CCC(=O)Nc2ccc(cc2)C[C@@H](C(=O)O)NC1=O` [Compound 54] ([d2Thi][Bip]L[Phe(4-NH2)]-OH; linker N-4 via Suc), the pIC50 was < 4.00. For the compound `O=C(O)CCCNC(=O)[C@@H]1Cc2ccc(cc2)OCC(=O)N[C@@H](Cc2c[nH]c3ccccc23)C(=O)N[C@H](Cc2ccc(-c3ccccc3)cc2)C(=O)N[C@@H](Cc2ccccc2F)C(=O)N1` [Compound 718], the pIC50 was > 5.00. Still for that read-out and setting: to `O=C(O)[C@H](Cc1ccccc1)NC(=O)[C@H]1Cc2ccc(cc2)NC(=O)[C@H](O)[C@@H](O)C(=O)N[C@H](Cc2cccs2)C(=O)N[C@@H](Cc2ccc(-c3ccccc3)cc2)C(=O)N[C@H](CCc2ccccc2)C(=O)N1` [Compound 429] belongs > 5.00; to `O=C(O)CCNC(=O)[C@@H]1Cc2ccc(cc2)NC(=O)CCC(=O)N[C@H](Cc2cccs2)C(=O)N[C@@H](Cc2ccc(-c3ccccc3)cc2)C(=O)N[C@H](CCc2ccccc2)C(=O)N1` [Compound 448] ([d2Thi][Bip][d(hPhe)][Phe(4-NH2)][βAla]-OH; linker N-4 via Suc), 4.52 to 5.00. The same measure, in the same setting: to `O=C1CCC(=O)N[C@H](Cc2cccs2)C(=O)N[C@@H](Cc2ccc(-c3ccccc3)cc2)C(=O)N[C@H](Cc2ccccc2)C(=O)N[C@H](C(=O)NCCO)Cc2ccc(cc2)N1` [Compound 205] ([d2Thi][Bip][dF][Phe(4-NH2)]-NHCH2CH2OH; linker N-4 via Suc) belongs < 4.00; to `O=C1CCC(=O)N[C@H](CCc2ccccc2)C(=O)N[C@@H](Cc2ccc(C(F)(F)F)cc2)C(=O)N[C@H](Cc2ccccc2)C(=O)Nc2ccc(cc2)C[C@@H](C(=O)O)N1` [Compound 552], 4.52 to 5.00; to `NCCOCCNC(=O)[C@@H]1Cc2ccc(cc2)NC(=O)CCC(=O)N[C@H](Cc2cccs2)C(=O)N[C@@H](Cc2ccc(-c3ccccc3)cc2)C(=O)N[C@H](Cc2ccccc2)C(=O)N1` [Compound 193] ([d2Thi][Bip][dF][Phe(4-NH2)]-{NH(CH2)2O(CH2)2NH2}; linker N-4 via Suc), > 5.00. As to `O=C(O)[C@@H]1Cc2ccc(cc2)NC(=O)[C@H](O)[C@@H](O)C(=O)N[C@H](Cc2cccs2)C(=O)N[C@@H](Cc2ccc(Cl)cc2Cl)C(=O)N[C@H](Cc2ccccc2)C(=O)N1` [Compound 189], the pIC50 was < 4.00. As to `O=C(O)C[C@H](NC(=O)[C@@H]1Cc2ccc(cc2)OCC(=O)N[C@@H](Cc2cccs2)C(=O)N[C@@H](Cc2ccc(-c3ccccc3)cc2)C(=O)N[C@@H](Cc2ccccc2)C(=O)N1)C(=O)O` [Compound 345], the pIC50 was 4.00 to 4.52. Same read-out and setting: to `O=C1COc2ccc(cc2)C[C@@H](C(=O)O)NC(=O)[C@@H](CCc2ccccc2)NC(=O)[C@H](Cc2ccc(-c3ccccc3)cc2)NC(=O)[C@@H](CCc2ccccc2)N1` [Compound 144] belongs 4.52 to 5.00. The same measure, in the same setting: to `O=C(O)[C@@H]1Cc2ccc(cc2)NC(=O)[C@@H]2CCCC[C@@H]2C(=O)N[C@H](Cc2cccs2)C(=O)N[C@@H](Cc2ccc(-c3ccccc3)cc2)C(=O)N[C@H](Cc2ccccc2)C(=O)N1` [Compound 187] belongs < 4.00; to `CC(C)(C)OC(=O)NCCCC(=O)N[C@H]1CC(=O)Nc2ccc(cc2)C[C@@H](C(=O)O)NC(=O)[C@@H](Cc2ccccc2)NC(=O)[C@H](Cc2ccc(-c3ccccc3)cc2)NC(=O)[C@@H](Cc2cccs2)NC1=O` [Compound 516] ({Boc-GABA}-D[d2Thi][Bip][dF][Phe(4-NH2)]-OH; lactam 1-5), 4.00 to 4.52; to `N#Cc1cccc(C[C@H]2CC(=O)N[C@H](C(=O)O)Cc3ccc(cc3)OCC(=O)N[C@@H](Cc3cccs3)C(=O)N[C@H](Cc3ccc(-c4ccccc4)cc3)C(=O)N2)c1` [Compound 641], > 5.00.

`N#Cc1cccc(C[C@H]2NC(=O)CCC(=O)Nc3ccc(cc3)C[C@@H](C(=O)O)NC(=O)[C@@H](Cc3ccccc3)NC(=O)[C@H](Cc3ccc(C(F)(F)F)cc3)NC2=O)c1` [Compound 130] ([dPhe(3-CN)][Phe(4-CF3)][dF][Phe(4-NH2)]-OH; linker N-4 via Suc): the pIC50 was 4.52 to 5.00. Turning to `O=C1COc2ccc(cc2)C[C@@H](C(=O)N[C@@H](Cc2ccccc2)c2nnn[nH]2)NC(=O)[C@H](CCc2ccccc2)NC(=O)[C@@H](Cc2ccc(-c3ccccc3)cc2)NC(=O)[C@H](Cc2ccncc2)N1` [Compound 592], the pIC50 is > 5.00.

With `O=C1COc2ccc(cc2)C[C@@H](C(=O)O)NC(=O)[C@H](CCc2ccccc2)NC(=O)[C@@H](Cc2ccc(-c3ccccc3)cc2)NC(=O)[C@H](Cc2cn(-c3ccccc3)nn2)N1` [Compound 693], the pIC50 was > 5.00. Same read-out and setting: to `O=C1COc2ccc(cc2)C[C@@H](C(=O)O)NC(=O)[C@H](CCc2ccccc2)NC(=O)[C@@H](Cc2ccc(-c3ccccc3)cc2)NC(=O)C(c2ccccc2)N1` (stereo partly shown) [Compound 507] belongs 4.52 to 5.00; to `O=C(O)CCCNC(=O)[C@@H]1Cc2ccc(cc2)OCC(=O)N[C@@H](Cc2ccncc2)C(=O)N[C@H](Cc2ccc(-c3ccccc3)cc2)C(=O)N[C@@H](CCc2ccccc2)C(=O)N1` [Compound 560], > 5.00. On the same count and under the same terms, to `CC(=O)NCCCC[C@@H]1NC(=O)COc2ccc(cc2)C[C@@H](C(=O)O)NC(=O)[C@H](Cc2ccccc2)NC(=O)[C@H](Cc2ccc(-c3ccccc3)cc2)NC1=O` [Compound 490] belongs < 4.00. As for `O=C1CCC(=O)N[C@H](Cc2cccs2)C(=O)N[C@@H](Cc2ccc(-c3ccccc3)cc2)C(=O)N[C@H](CCc2ccccc2)C(=O)N[C@H](C(=O)O)Cc2ccc(cn2)N1` [Compound 547], the pIC50 is > 5.00.

On to `CC(=O)O[C@H]1C(=O)Nc2ccc(cc2)C[C@H](C(=O)N[C@@H](Cc2ccccc2)C(=O)O)NC(=O)[C@H](Cc2ccccc2)NC(=O)[C@@H](Cc2ccc(Br)cc2)NC(=O)[C@H](Cc2cccs2)NC(=O)[C@@H]1OC(C)=O` [Compound 417] ([2Thi][dPhe(4-Br)]F[dPhe(4-NH2)]F-OH; linker N-4 via Tartaroyl(2R,3R-(OAc)2)), for which the pIC50 was < 4.00. On the same count and under the same terms, to `O=C(O)CCNC(=O)[C@@H]1Cc2ccc(cc2)NC(=O)[C@H](O)[C@@H](O)C(=O)N[C@H](Cc2cccs2)C(=O)N[C@@H](Cc2ccc(-c3ccccc3)cc2)C(=O)N[C@H](Cc2ccccc2)C(=O)N1` [Compound 175] belongs > 5.00; to `O=C1CCC(=O)N[C@H](Cc2cccc(Cl)c2)C(=O)N[C@@H](Cc2ccc(C(F)(F)F)cc2)C(=O)N[C@H](Cc2ccccc2)C(=O)N[C@H](C(=O)O)Cc2ccc(cc2)N1` [Compound 133] ([dPhe(3-Cl)][Phe(4-CF3)][dF][Phe(4-NH2)]-OH; linker N-4 via Suc), 4.00 to 4.52. Consider `O=C1COc2ccc(cc2)C[C@@H](C(=O)O)NC(=O)[C@H](c2ccccc2)NC(=O)[C@@H](Cc2ccc(-c3ccccc3)cc2)NC(=O)[C@H](Cc2cccs2)N1` [Compound 368], for which the pIC50 was < 4.00. Still for that read-out and setting: to `O=C1CCNC(=O)c2ccc(cc2)C[C@@H](C(=O)O)NC(=O)[C@@H](Cc2ccccc2)NC(=O)[C@@H](Cc2ccc(-c3ccccc3)cc2)NC(=O)[C@H](CCc2ccccc2)N1` [Compound 468] ([βAla][hPhe][dBip][dF][Phe(4-COOH)]-OH; lactam N-5) belongs < 4.00.
